Consider two compounds from ChEMBL document CHEMBL1127965, “Synthesis of novel monocyclic squalestatin analogues as potential inhibitors of squalene synthase” (Bioorg Med Chem Lett, 1994).

Structures are written as SMILES.

For the test, the target named is T1, Squalene synthase (Rattus norvegicus, UniProt Q02769).
T1 sequence (Q02769 whole entry): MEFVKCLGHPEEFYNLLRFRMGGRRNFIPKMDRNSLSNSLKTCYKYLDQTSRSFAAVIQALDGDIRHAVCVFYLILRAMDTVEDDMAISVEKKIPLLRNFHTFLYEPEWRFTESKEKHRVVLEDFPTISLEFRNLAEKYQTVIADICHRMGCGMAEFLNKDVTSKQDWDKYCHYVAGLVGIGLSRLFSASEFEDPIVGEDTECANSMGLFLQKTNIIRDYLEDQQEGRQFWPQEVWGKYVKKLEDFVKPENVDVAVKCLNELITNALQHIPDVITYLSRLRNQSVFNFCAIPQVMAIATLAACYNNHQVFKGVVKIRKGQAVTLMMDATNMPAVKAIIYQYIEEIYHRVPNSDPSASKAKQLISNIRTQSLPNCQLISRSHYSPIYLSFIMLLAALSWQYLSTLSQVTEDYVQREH
Briefly: In vitro inhibitory activity against rat liver squalene synthase.

As a reminder, the IC50 is the concentration needed to halve the response being measured. A lower IC50 goes with inhibition by little substance.

The compound `C=C(CCC12CCC(C(=O)O)(O1)C(O)(C(=O)O)C(C(=O)O)O2)[C@@H](OC(C)=O)[C@H](C)Cc1ccccc1` (some centres not stated) gave an IC50 of 0.057 µM. `O=C(O)C1OC(CCCCCCc2ccccc2)OC(C(=O)O)C1(O)C(=O)O` (configuration not stated): the half-maximal inhibitory concentration (IC50) turned out to be 8 µM.
